In patent publication US20100016392A1, “Pesticidal Aggregates” (priority 2006, published 2010):

Columns and labels:
[1] = cited from earlier work
[2] = Amount of pesticide incorporated into Sokalan PA-15/Arquad 18/50 aggregate; type: physicochemical; details: pesticide incorporated into aggregate with 1 equivalent Sokalan PA-15 and 2 equivalents Arquad 18/50
Procedure: […] of the active ingredient listed was placed into a 20 mL vial and 1 equivalent of a 1 molar sodium hydroxide solution added. The mixture was stirred until the active dissolved (0.5 or 1.0 gram of deionized water was added if necessary). One equivalent of Sokalan PA-15 (linear polyacrylic acid sodium salt with low molecular weight of 1200 g/mol) was added and the mixture mixed. 2 equivalents of Arquad 18/50 octadecyltrimethyl ammonium chloride (aqueous isopropanol solution) were added and the mixture was stirred using a vortex mixer. Using a process similar to that described in Example 2, the amount of pesticide incorporated into the aggregate was measured.

[3] = cited from earlier work; remark: listed apart in the source
[4] = Uptake of pesticide into the aggregate, UV-spectroscopy of the supernatant; type: physicochemical

SMILES | Percent a.i. [2] | pKa [3] | other results
Cc1c(COC(=O)[C@@H]2[C@H](/C=C(\Cl)C(F)(F)F)C2(C)C)cccc1-c1ccccc1 (racemic) [Bifenthrin] | – | – | octanol/water partition coefficient log P [1]: > 6
CCc1cnc(C2=NC(C)(C(C)C)C(=O)N2)c(C(=O)O)c1 (racemic) [Imazethapyr, (+/−)-2-[4,5-dihydro-4-methyl-4-(1-methylethyl)-5-oxo-1H-imidazol-2-yl]-5-ethyl-3-pyridinecarboxylic acid] | 5.57 | – | –
O=C(O)COc1ccc(Cl)cc1Cl [2,4-D, (2,4-dichlorophenoxy)acetic acid] | 2.45 | 2.9 | –
N#Cc1cc(Br)c(O)c(Br)c1 [Bromoxynil, 3,5-dibromo-4-hydroxybenzonitrile] | 4.34 | – | –
O=C(O)c1nc(Cl)ccc1Cl [Clopyralid (Lontrel)] | 3.46 | – | –
CCOc1nc(F)cc2nc(S(=O)(=O)Nc3c(Cl)cccc3C(=O)OC)nn12 [Cloransulam-methyl] | 5.11 | 5.4 | –
COc1c(Cl)ccc(Cl)c1C(=O)O [Dicamba, 3,6-dichloro-2-methoxybenzoic acid] | 3.77 | 3 | –
CC1(C(=O)Nc2ccc(O)c(Cl)c2Cl)CCCCC1 [Fenhexamid] | 4.47 | – | –
CS(=O)(=O)NC(=O)c1cc(Oc2ccc(C(F)(F)F)cc2Cl)ccc1[N+](=O)[O-] [Fomesafen, 5-[2-chloro-4-(trifluoromethyl)phenoxy]-N-(methylsulfonyl)-2-nitrobenzamide] | 7.17 | – | –
C=C1C[C@]23C[C@@]1(O)CC[C@H]2[C@@]12C=C[C@H](O)[C@@](C)(C(=O)O1)[C@H]2[C@@H]3C(=O)O [Gibberellic acid] | 6.28 | – | –
O=C(O)CNCP(=O)(O)O [Glyphosate, N-(phosphonomethyl)glycine] | 4.70 | 4.4 | –
O=C(NC(=O)c1c(F)cccc1F)Nc1cc(Cl)c(OC(F)(F)C(F)C(F)(F)F)cc1Cl (centres unmarked) [Lufenuron] | 8.16 | – | –
CS(=O)(=O)c1ccc(C(=O)C2C(=O)CCCC2=O)c([N+](=O)[O-])c1 [Mesotrione] | 6.21 | – | –
COc1cc(OC)nc(NC(=O)NS(=O)(=O)c2ncccc2C(=O)N(C)C)n1 [Nicosulfuron] | 6.96 | 4.5 | –
C[C@@H](Oc1ccc(Oc2cnc3cc(Cl)ccc3n2)cc1)C(=O)O [Quizalofop-P] | 4.76 | >3 | –
Cc1nn(-c2cc(NS(C)(=O)=O)c(Cl)cc2Cl)c(=O)n1C(F)F [Sulfentrazone] | – | – | Uptake of sulfentrazone in the aggregate ([4]; mixture: Atlox 550S 0.075, C14NBr 0.5, sulfentrazone 0.5 weight %): 74 w/w %; Uptake of sulfentrazone in the aggregate ([4]; mixture: Atlox 550S 0.15, C14NBr 0.7, sulfentrazone 0.5 weight %): 83 w/w %; Uptake of sulfentrazone in the aggregate ([4]; mixture: Atlox 550S 0.25, C14NBr 0.75, sulfentrazone 0.5 weight %): 77 w/w %; Uptake of sulfentrazone in the aggregate ([4]; mixture: Atlox 550S 0.5, C14NBr 1.25, sulfentrazone 0.5 weight %): 90 w/w %; Uptake of sulfentrazone in the aggregate ([4]; mixture: REAX 88B 0.25, C14NBr 0.6, sulfentrazone 0.5 weight %): 82 w/w %; Uptake of sulfentrazone in the aggregate ([4]; mixture: REAX 88B 0.30, C14NBr 0.8, sulfentrazone 0.5 weight %): 92 w/w %; Uptake of sulfentrazone in the aggregate ([4]; mixture: REAX 88B 0.5, C14NBr 1.0, sulfentrazone 0.5 weight %): 94 w/w %
CCC(CC)Nc1c([N+](=O)[O-])cc(C)c(C)c1[N+](=O)[O-] [pendimethalin] | – | – | octanol/water partition coefficient log P [1]: 5.2
